Key:
[1] = test system: ACHN; experiment: NCI-60 panel growth inhibition; type: cell-based; details: Homo sapiens, Renal Cancer, mutated RAS No, mutated BRAF No
Excerpt: (§1) Table 1 summarizes KG5's effect in 60 NCI cancer cell lines: the NCI-60 panel showing the half maximal growth inhibitory concentration of KG5 and the RAS and BRAF status in 60 human cancer cell lines.

[2] = test system: BT-549; experiment: NCI-60 panel growth inhibition; type: cell-based; details: Homo sapiens, Breast Cancer, mutated RAS No, mutated BRAF No
Excerpt: as §1

[3] = test system: CCRF-CEM; experiment: NCI-60 panel growth inhibition; type: cell-based; details: Homo sapiens, Leukemia, mutated RAS Yes, mutated BRAF No
Excerpt: as §1

[4] = test system: HL-60(TB); experiment: NCI-60 panel growth inhibition; type: cell-based; details: Homo sapiens, Leukemia, mutated RAS Yes, mutated BRAF No
Excerpt: as §1

[5] = test system: HT29; experiment: NCI-60 panel growth inhibition; type: cell-based; details: Homo sapiens, HT-29; Colon Cancer; mutated RAS No; mutated BRAF Yes
Excerpt: as §1

[6] = test system: KM12; experiment: NCI-60 panel growth inhibition; type: cell-based; details: Homo sapiens, Colon Cancer, mutated RAS No, mutated BRAF No
Excerpt: as §1

[7] = test system: M14; experiment: NCI-60 panel growth inhibition; type: cell-based; details: Homo sapiens, Melanoma, mutated RAS No, mutated BRAF Yes
Excerpt: as §1

[8] = test system: MALME-3M; experiment: NCI-60 panel growth inhibition; type: cell-based; details: Homo sapiens, Melanoma, mutated RAS No, mutated BRAF Yes
Excerpt: as §1

[9] = test system: NCI-H460; experiment: NCI-60 panel growth inhibition; type: cell-based; details: Homo sapiens, NSC Lung Cancer, mutated RAS Yes, mutated BRAF No
Excerpt: as §1

[10] = test system: RXF 393; experiment: NCI-60 panel growth inhibition; type: cell-based; details: Homo sapiens, Renal Cancer, mutated RAS No, mutated BRAF No
Excerpt: as §1

[11] = test system: SF-268; experiment: NCI-60 panel growth inhibition; type: cell-based; details: Homo sapiens, CNS Cancer, mutated RAS No, mutated BRAF No
Excerpt: as §1

[12] = test system: SF-539; experiment: NCI-60 panel growth inhibition; type: cell-based; details: Homo sapiens, CNS Cancer, mutated RAS No, mutated BRAF No
Excerpt: as §1

[13] = test system: SK-MEL-2; experiment: NCI-60 panel growth inhibition; type: cell-based; details: Homo sapiens, Melanoma, mutated RAS Yes, mutated BRAF No
Excerpt: as §1

[14] = test system: SR; experiment: NCI-60 panel growth inhibition; type: cell-based; details: Homo sapiens, Leukemia, mutated RAS No, mutated BRAF No
Excerpt: as §1

[15] = test system: SW-620; experiment: NCI-60 panel growth inhibition; type: cell-based; details: Homo sapiens, Colon Cancer, mutated RAS No, mutated BRAF No
Excerpt: as §1

[16] = test system: T-47D; experiment: NCI-60 panel growth inhibition; type: cell-based; details: Homo sapiens, T47D; Breast Cancer; mutated RAS Yes; mutated BRAF No
Excerpt: as §1

[17] = test system: TK-10; experiment: NCI-60 panel growth inhibition; type: cell-based; details: Homo sapiens, Renal Cancer, mutated RAS No, mutated BRAF No
Excerpt: as §1

[18] = test system: U251; experiment: NCI-60 panel growth inhibition; type: cell-based; details: Homo sapiens, U-251; CNS Cancer; mutated RAS No; mutated BRAF No
Excerpt: as §1

[19] = test system: UO-31; experiment: NCI-60 panel growth inhibition; type: cell-based; details: Homo sapiens, Renal Cancer, mutated RAS No, mutated BRAF No
Excerpt: as §1

[20] = target: T1, phospho-S338 CRAF (Mus musculus, UniProt Q99N57); experiment: Phospho-S338 CRAF staining in orthotopic R40P murine pancreatic cancer tissues; type: in vivo, mice; details: systemic KG5, 3 days
T1 construct: immunofluorescent staining of phospho-S338 CRAF in orthotopic pancreatic cancer tissues untreated or systemically treated with KG5; from tissue; host or cells: orthotopic R40P murine pancreatic tumours in mice
Excerpt: FIG. 5 illustrates the effect of KG5 on orthotopic R40P murine pancreatic tumor cells after three days, as further discussed in Example 1, below.
FIG. 5 illustrates an immunofluorescent staining of phospho-S338 CRAF in orthotopic pancreatic cancer tissues untreated or systemically treated with KG5 for 3 days.

[21] = test system: human lung (A549) carcinoma cell line; experiment: Cell viability assay in A549 cells; type: cell-based
[22] = test system: human breast (T47D) carcinoma cell line; experiment: Cell viability assay in T47D cells; type: cell-based
[23] = test system: human colon (HCT-116), pancreatic (Mia-Paca2, FG, XPA-1, BXPC3), breast (MDA-MB-231) and brain (U251) cancer cell lines; experiment: Cell cycle analysis of proliferating tumor cell lines treated with KG5; type: cell-based; details: all proliferating tumor cell lines tested
Procedure: FIG. 40. Allosteric inhibition of RAF arrests proliferating cells at pro-metaphase. FIG. 40(a) Cell cycle analysis and G2/M quantification of human colon (HCT-116), pancreatic (Mia-Paca2, FG, XPA-1, BXPC3), breast (MDA-MB-231) and brain (U251) cancer cell lines untreated or treated for 20 hours with 5 μM of KG5. Error bars represent s.d. (n=4); * two tailed p value=0.0023 using Mann Whitney U test. FIG. 40(b) HCT-116 cells were cultured under low (30%) or high (90%) confluency and treated with 1 μM KG5 for 20 hours. […] Error bars represent s.d. (n=3); * two tailed p value=0.0021 using Mann Whitney U test. FIG. 40(c) HCT-116 and XPA-1 cells were treated for 20 hours with 1 μM of KG5, stained for α-tubulin/DNA, and cells arrested in pro-metaphase were quantified by confocal microscopy. Error bars represent s.d. (n=3); * two tailed p value=0.0008 using Mann Whitney U test. Lysates from the same cells were also analyzed by immunoblotting for the expression of the mitotic marker phospho-Histone H3 (inset). Data are representative of three independent experiments.
Cell cycle analysis was performed by flow cytometry following propidium iodide staining. Briefly, cells were harvested, fixed with ice cold methanol, treated for 45 min with 10 μg/ml of RNase and resuspended in PBS containing 10 μg/ml of PI, and analyzed by flow cytometry. […]

[24] = bFGF- or VEGF-stimulated endothelial cells; cited from earlier work
[25] = test system: FAK or Src; details: cited from earlier work
[26] = test system: PKC; details: cited from earlier work
[27] = target: Flt-3 (Homo sapiens, UniProt P36888); details: cited from earlier work
Chain of Flt-3 (P36888 27-993, species assumed): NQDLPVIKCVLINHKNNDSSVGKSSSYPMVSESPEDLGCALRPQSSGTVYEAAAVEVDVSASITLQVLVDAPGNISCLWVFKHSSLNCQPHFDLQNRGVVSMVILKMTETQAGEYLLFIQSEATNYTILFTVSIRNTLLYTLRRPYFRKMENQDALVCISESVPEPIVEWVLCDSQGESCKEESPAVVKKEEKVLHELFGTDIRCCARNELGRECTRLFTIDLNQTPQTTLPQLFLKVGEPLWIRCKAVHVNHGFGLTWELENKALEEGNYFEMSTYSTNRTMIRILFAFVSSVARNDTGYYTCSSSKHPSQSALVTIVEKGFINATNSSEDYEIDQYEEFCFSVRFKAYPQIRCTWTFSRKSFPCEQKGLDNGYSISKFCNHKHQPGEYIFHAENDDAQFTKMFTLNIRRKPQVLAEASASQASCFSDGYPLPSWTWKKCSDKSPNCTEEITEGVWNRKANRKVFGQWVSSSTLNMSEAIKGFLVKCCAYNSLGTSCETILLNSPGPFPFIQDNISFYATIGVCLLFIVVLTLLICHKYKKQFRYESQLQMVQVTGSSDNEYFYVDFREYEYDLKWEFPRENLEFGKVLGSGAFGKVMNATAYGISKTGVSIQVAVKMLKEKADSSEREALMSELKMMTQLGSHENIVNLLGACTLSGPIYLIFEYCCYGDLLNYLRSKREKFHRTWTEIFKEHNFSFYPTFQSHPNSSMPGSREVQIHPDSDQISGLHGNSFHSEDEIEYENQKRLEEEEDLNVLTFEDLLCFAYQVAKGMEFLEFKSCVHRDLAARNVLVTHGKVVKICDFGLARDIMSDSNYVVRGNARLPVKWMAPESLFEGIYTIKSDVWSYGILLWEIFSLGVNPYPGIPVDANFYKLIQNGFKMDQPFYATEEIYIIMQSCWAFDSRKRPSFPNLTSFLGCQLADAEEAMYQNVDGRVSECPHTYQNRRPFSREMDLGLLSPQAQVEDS

With `CSc1nc(N)cc(Oc2ccc(-c3nnc(Nc4cccc(C(F)(F)F)c4)[nH]3)cc2)n1` [KG5] the GI50 [1] was 851 nM, the GI50 [2] was 708 nM and the GI50 [3] was 380 nM. For the same compound, the GI50 [4] was 407 nM, the GI50 [5] was 363 nM and the GI50 [6] was 468 nM. It also gave a GI50 [7] of 347 nM, a GI50 [8] of 316 nM and a GI50 [9] of 363 nM. It also gave a GI50 [10] of 166 nM, a GI50 [11] of 912 nM and a GI50 [12] of 347 nM. For the same compound, the GI50 [13] was 589 nM, the GI50 [14] was 398 nM and the GI50 [15] was 617 nM. The GI50 [16] was 347 nM, the GI50 [17] was 692 nM and the GI50 [18] was 468 nM. For the same compound, the GI50 [19] was 513 nM, the “phospho-S338 CRAF in orthotopic pancreatic cancer tissues” value [20] was “inhibits serine 338 phosphorylation of CRAF” and the cell viability ([21]; A549) was “decrease cell viability”. For the same compound, the EC50 ([21]; A549 lung cancer cells) was “approach picomolar (pM) EC50s”, the cell viability ([22]; T47D) was “decrease cell viability” and the EC50 ([22]; T47D breast cancer cells) was “approach picomolar (pM) EC50s”. The “mitotic arrest and cell death” value [23] was “mitotic arrest at pro-metaphase followed by cell death”, the “phospho-S338 CRAF” value [23] was “inhibition of phospho-S338 CRAF” and the p-Aid [24] was “did not suppress”. The “integrin-mediated signaling to FAK or Src” value [25] was “no effect”, the PKC [26] was “no impact” and the “inhibition of Flt-3” value [27] was “inhibits”.
